Measured values: patent publication US10683293B2, “Optionally fused heterocyclyl-substituted derivatives of pyrimidine useful for the treatment of inflammatory, metabolic, oncologic and autoimmune diseases” (NUEVOLUTION A/S, priority 2014, dated 2020)

biological target: T1, human RORγt (Ligand Binding Domain) (Homo sapiens, UniProt P51449); assay: Fluorescence Polarization (FP) Assay; conditions: 100 nM human RORγt LBD, 25 nM TAMRA probe, values are activity range bounds
T1 construct: purchased Crelux (Planegg, Germany) batch no PC5032-1
T1 sequence (P51449 269-508 limits assumed): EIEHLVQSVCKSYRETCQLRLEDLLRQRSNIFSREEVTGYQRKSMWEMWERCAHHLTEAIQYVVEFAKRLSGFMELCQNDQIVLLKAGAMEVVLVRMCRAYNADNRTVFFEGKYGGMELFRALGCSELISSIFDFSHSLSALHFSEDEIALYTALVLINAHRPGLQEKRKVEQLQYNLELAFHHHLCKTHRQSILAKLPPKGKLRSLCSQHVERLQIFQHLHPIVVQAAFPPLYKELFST
Protocol: The activity of the compounds was evaluated using a Fluorescence Polarization (FP) Assay and, RORγ Reporter assay (also referred to as Gal4 assay). The FP assay is an in vitro assay monitoring binding within the ligand binding pocket. The RORγ and the Th17 assays (another suitable assay) are both cell-based assays monitoring functional activity of the compound assayed.
Fluorescence Polarization (FP) Assay
The total volume was 25 μl, in a black Perkin Elmer OptiPlate. As negative control, 1 μl DMSO was used. […] The probe is a fluorescently labeled (TAMRA) RORγt ligand identified by Nuevolution with a total molecular weight of 910 g/mole as shown in Graph A in FIG. 1.

| IC50 | Structure (SMILES) |
| --- | --- |
| < 500 nM | NC(=O)Cc1ccc(CNc2ncnc(N(Cc3cccc(-c4cccnc4)c3)C3CC3)c2F)cc1 [Example A130, 2-[4-[[[6-[cyclopropyl-[[3-(3-pyridyl)phenyl]methyl]amino]-5-fluoro-pyrimidin-4-yl]amino]methyl]phenyl]acetamide] |
| < 500 nM | CC(c1cccc2ccccc12)N(C)c1ncnc(NCc2ccc(CC(N)=O)cc2)c1F (centres unmarked) [Example A131, 2-[4-[[[5-fluoro-6-[methyl-[1-(1-naphthyl)ethyl]amino]pyrimidin-4-yl]amino]methyl]phenyl]acetamide] |
| < 10000 nM | CN(Cc1ccc(-n2cccn2)cc1)c1ncnc(NCC2(CCO)CCOCC2)c1F [Example A132, 2-[4-[[[5-fluoro-6-[methyl-[(4-pyrazol-1-ylphenyl)methyl]amino]pyrimidin-4-yl]amino]methyl]tetrahydropyran-4-yl]ethanol] |
| < 2000 nM | CN(Cc1ccc(-n2cccn2)cc1)c1ncnc(NCC2(CS(C)(=O)=O)CCOCC2)c1F [Example A133, 5-fluoro-N6-methyl-N4-[[4-(methylsulfonylmethyl)tetrahydro-pyran-4-yl]methyl]-N6-[(4-pyrazol-1-ylphenyl)methyl]pyrimidine-4,6-diamine] |
| < 2000 nM | CN(Cc1ccc(-n2cccn2)cc1)c1ncnc(NCc2ccc(-c3nnn[nH]3)cc2)c1F [Example A134, 5-fluoro-N6-methyl-N6-[(4-pyrazol-1-ylphenyl)methyl]-N4-[[4-(1H-tetrazol-5-yl)phenyl]methyl]pyrimidine-4,6-diamine] |
| < 10000 nM | CN(Cc1ccc(-n2cccn2)cc1)c1ncnc(NCc2ccc(S(N)(=O)=O)cc2)c1F [Example A135, 4-[[[5-fluoro-6-[methyl-[(4-pyrazol-1-ylphenyl)methyl]amino]pyrimidin-4-yl]amino]methyl]benzenesulfonamide] |
| < 2000 nM | COCCNS(=O)(=O)c1ccc(CNc2ncnc(N(C)Cc3ccc(-n4cccn4)cc3)c2F)cc1 [Example A136, 4-[[[5-fluoro-6-[methyl-[(4-pyrazol-1-ylphenyl)methyl]amino]pyrimidin-4-yl]amino]methyl]-N-(2-methoxyethyl)benzenesulfonamide] |
| < 500 nM | CN(Cc1ccc(-n2cccn2)cc1)c1ncnc(NCc2ccc(S(=O)(=O)O)cc2)c1F [Example A137, 4-[[[5-fluoro-6-[methyl-[(4-pyrazol-1-ylphenyl)methyl]amino]pyrimidin-4-yl]amino]methyl]benzenesulfonic acid] |
| < 2000 nM | COc1ccc(CN(C)c2ncnc(NCc3ccc(CC(N)=O)cc3)c2F)c(OC)c1 [Example A139, 2-[4-[[[6-[(2,4-dimethoxyphenyl)methyl-methyl-amino]-5-fluoro-pyrimidin-4-yl]amino]methyl]phenyl]acetamide] |
| < 10000 nM | CN(Cc1cccc(-n2cccn2)c1)c1ncnc(NCC2(O)CCS(=O)(=O)CC2)c1F [Example A140, 4-[[[5-fluoro-6-[methyl-[(3-pyrazol-1-ylphenyl)methyl]amino]pyrimidin-4-yl]amino]methyl]-1,1-dioxo-thian-4-ol] |
| < 2000 nM | CN(Cc1cccc(-n2cccn2)c1)c1ncnc(NCC2CCOCC2)c1F [Example A141, 5-fluoro-N6-methyl-N6-[(3-pyrazol-1-ylphenyl)methyl]-N4-(tetrahydropyran-4-ylmethyl)pyrimidine-4,6-diamine] |
| < 10000 nM | CN(Cc1cccc(-n2cccn2)c1)c1ncnc(NCc2ccc(CS(C)(=O)=O)cc2)c1F [Example A144, 5-fluoro-N6-methyl-N4-[[4-(methylsulfonylmethyl)phenyl]methyl]-N6-[(3-pyrazol-1-ylphenyl)methyl]pyrimidine-4,6-diamine] |
| < 10000 nM | CN1CCC(NC(=O)CC2(CNc3ncnc(N(Cc4ccc(C(F)(F)F)cc4)C4CC4)c3F)CCOCC2)C1 (centres unmarked) [Example A152, 2-[4-[[[6-[cyclopropyl-[[4-(trifluoromethyl)phenyl]methyl]amino]-5-fluoro-pyrimidin-4-yl]amino]methyl]tetrahydropyran-4-yl]-N-(1-methylpyrrolidin-3-yl)acetamide] |
| < 10000 nM | CN(C)CCCNC(=O)CC1(CNc2ncnc(N(Cc3ccc(C(F)(F)F)cc3)C3CC3)c2F)CCOCC1 [Example A153, 2-[4-[[[6-[cyclopropyl-[[4-(trifluoromethyl)phenyl]methyl]amino]-5-fluoro-pyrimidin-4-yl]amino]methyl]tetrahydropyran-4-yl]-N-[3-(dimethylamino)propyl]acetamide] |
| < 2000 nM | O=C(O)CNC(=O)CC1(CNc2ncnc(N(Cc3ccc(C(F)(F)F)cc3)C3CC3)c2F)CCOCC1 [Example A154, 2-[[2-[4-[[[6-[cyclopropyl-[[4-(trifluoromethyl)phenyl]methyl]amino]-5-fluoro-pyrimidin-4-yl]amino]methyl]tetrahydropyran-4-yl]acetyl]amino]acetic acid] |
| < 1000 nM | O=C(O)CCNC(=O)CC1(CNc2ncnc(N(Cc3ccc(C(F)(F)F)cc3)C3CC3)c2F)CCOCC1 [Example A155, 3-[[2-[4-[[[6-[cyclopropyl-[[4-(trifluoromethyl)phenyl]methyl]amino]-5-fluoro-pyrimidin-4-yl]amino]methyl]tetrahydropyran-4-yl]acetyl]amino]propanoic acid] |
| < 500 nM | COc1cc(CN(c2ncnc(NCc3ccc(CC(N)=O)cc3)c2F)C2CC2)ccc1Cl [Example A156, 2-[4-[[[6-[(4-chloro-3-methoxy-phenyl)methyl-cyclopropyl-amino]-5-fluoro-pyrimidin-4-yl]amino]methyl]phenyl]acetamide] |
| < 500 nM | Cc1ccc(CNc2ncnc(N(Cc3ccc(C(F)(F)F)cc3)C3CC3)c2F)nn1 [Example A157, N4-cyclopropyl-5-fluoro-N6-[(6-methylpyridazin-3-yl)methyl]-N4-[[4-(trifluoromethyl)phenyl]methyl] pyrimidine-4,6-diamine] |
| < 500 nM | CS(=O)(=O)N1CCC(CNc2ncnc(N(Cc3ccc(C(F)(F)F)cc3)C3CC3)c2F)C1 (centres unmarked) [Example A158, N4-cyclopropyl-5-fluoro-N6-[(1-methylsulfonylpyrrolidin-3-yl)methyl]-N4-[[4-(trifluoromethyl)phenyl]methyl] pyrimidine-4,6-diamine] |
| < 500 nM | Cc1cnc(CNc2ncnc(N(Cc3ccc(C(F)(F)F)cc3)C3CC3)c2F)cn1 [Example A159, N4-cyclopropyl-5-fluoro-N6-[(5-methylpyrazin-2-yl)methyl]-N4-[[4-(trifluoromethyl)phenyl]methyl] pyrimidine-4,6-diamine] |
| < 500 nM | CS(=O)(=O)N1CC(CNc2ncnc(N(Cc3ccc(C(F)(F)F)cc3)C3CC3)c2F)C1 [Example A160, N4-cyclopropyl-5-fluoro-N6-[(1-methylsulfonylazetidin-3-yl)methyl]-N4-[[4-(trifluoromethyl)phenyl]methyl] pyrimidine-4,6-diamine] |
| < 500 nM | NC(=O)Cc1ccc(CNc2ncnc(N(Cc3cccc(-n4cncn4)c3)C3CC3)c2F)cc1 [Example A161, 2-[4-[[[6-[cyclopropyl-[[3-(1,2,4-triazol-1-yl)phenyl]methyl]amino]-5-fluoro-pyrimidin-4-yl]amino]methyl]phenyl]acetamide] |
| < 500 nM | NC(=O)Cc1ccc(CNc2ncnc(N(Cc3ccc4c(c3)OCC(=O)N4)C3CC3)c2F)cc1 [Example A162, 2-[4-[[[6-[cyclopropyl-[(3-oxo-4H-1,4-benzoxazin-7-yl)methyl]amino]-5-fluoro-pyrimidin-4-yl]amino]methyl]phenyl]acetamide] |
| < 500 nM | N#Cc1cccc(CN(c2ncnc(NCc3ccc(CC(N)=O)cc3)c2F)C2CC2)c1 [Example A163, 2-[4-[[[6-[(3-cyanophenyl)methyl-cyclopropyl-amino]-5-fluoro-pyrimidin-4-yl]amino]methyl]phenyl]acetamide] |
| < 10000 nM | CS(=O)(=O)N1CCC(CNc2ncnc(N(Cc3ccc(C(F)(F)F)cn3)C3CC3)c2F)C1 (centres unmarked) [Example A166, N6-cyclopropyl-5-fluoro-N4-[(1-methylsulfonylpyrrolidin-3-yl)methyl]-N6-[[5-(trifluoromethyl)-2-pyridyl]methyl]pyrimidine-4,6-diamine] |
| < 10000 nM | CS(=O)(=O)N1CC(CNc2ncnc(N(Cc3ccc(C(F)(F)F)cn3)C3CC3)c2F)C1 [Example A173, N4-cyclopropyl-5-fluoro-N6-[(1-methylsulfonylazetidin-3-yl)methyl]-N4-[[5-(trifluoromethyl)-2-pyridyl]methyl]pyrimidine-4,6-diamine] |
| < 2000 nM | NC(=O)Cc1ccc(CNc2ncnc(N(Cc3ccc(C(F)(F)F)cc3)C3CC3)c2F)nc1 [Example A177, 2-[6-[[[6-[cyclopropyl-[[4-(trifluoromethyl)phenyl]methyl]amino]-5-fluoro-pyrimidin-4-yl]amino]methyl]-3-pyridyl]acetamide] |
| < 10000 nM | Cc1cc(CN(c2ncnc(NCC3CCN(S(C)(=O)=O)CC3)c2F)C2CCCCC2)n(C)n1 [Example A180, N6-cyclohexyl-N6-[(2,5-dimethylpyrazol-3-yl)methyl]-5-fluoro-N4-[(1-methylsulfonyl-4-piperidyl)methyl]pyrimidine-4,6-diamine] |
| < 10000 nM | O=C(O)C[C@H](Nc1ncnc(N(Cc2ccc(C(F)(F)F)cc2)C2CC2)c1F)c1ccccc1 [Example A182, (3S)-3-[[6-[cyclopropyl-[[4-(trifluoromethyl)phenyl]methyl]amino]-5-fluoro-pyrimidin-4-yl]amino]-3-phenyl-propanoic acid] |
